The text below walks through data of paper PMC12079500, “An Intracellular Peptide Library Screening Platform Identifies Irreversible Covalent Transcription Factor Inhibitors” (Advanced Science, 2025).

*1 amine or outer side, *2 acyl side, *3 side chain or, on linkers, in order; H or OH if unused. Where a SMILES comes first, the peptide text is derived from it. Bridges are numbered along the chain shown (N, C = ends). [ ]: non-standard residue; d: D form. The star is where a group is joined. Met(S-mXyl) = C[S+](CC[C@H](N[*:1])C(=O)[*:2])Cc1cccc(C[*:3])c1; 5FAM = O=C1OC2(c3ccc(O)cc3Oc3cc(O)ccc32)c2ccc(C(=O)*)cc21

The subject of data set [1] is SK-MEL-28 cells. The experiment in a line: Cell imaging of FAM-peptide uptake. Type of data set: cell-based, human. As to conditions: SK-MEL-28, 10 and 30 µM, 6 h, 37 °C, fixed, DAPI counterstain, fluorescence microscopy. The procedure: Cell imaging: Cells were seeded at 40,000 cells per well in a […] and incubated for 24 hours before treatment with vehicle (1% DMSO in water) or peptide for 6 hours. The media was removed and the cells were washed 3x with PBS. 1 mL of paraformaldehyde (80 mg/mL in PBS) was added and incubated at room temperature for 10 minutes. The paraformaldehyde was removed and fixed cells were washed with 3x PBS. 500 µL of DAPI (1 µg/mL) was then added and incubated at room temperature for 5 minutes following by a 3x PBS wash. Cells were imaged using an Evos FL digital inverted fluorescence microscope using brightfield and both GFP (for the FAM label) and DAPI fluorescence filters.

For data set [2], the system named is SK-MEL-28 cells. As to the kind of experiment: MTT cell viability assay. Type of data set: cell-based, human. As to conditions: SK-MEL-28, 30 µM. The procedure:
Cell viability assay: Cells were seeded at 15,000 cells per well in a 96-well plate and incubated for 24 hours before treatment with vehicle (1% DMSO in water) or peptide for 6 or 24 hours. The media was removed and the cells were washed twice with PBS before 50 µL of MTT (1 mg/mL in PBS, Merck) was added and incubated at 37°C for 30 minutes. The MTT solution was removed and 100 µL isopropanol was added to each well and rocked at room temperature for 5 minutes. Absorbance at 595 nm was measured using a Clariostar plate reader. Unless otherwise stated, all data are reported as an average of three independent biological experiments, with each data point determined in triplicate (i.e. 9 measurements) and reported as the mean with errors given as one standard deviation. For data with one independent measurement, each data point was determined in triplicate i.e. 3 measurements and reported as the mean with errors given as one standard deviation.

For the next data set, the target named is cJun (Homo sapiens, UniProt P05412). The experiment in a line: Western blot of cJun levels in cell lysate after peptide addition. As to conditions: SK-MEL-28 cell lysate with protease inhibitor cocktail, 30 µM peptide, 37 °C, 5 mM TCEP, pH 7.4, western blot over time. It is filed as biochemical. Set-up: endogenous in cells; host or cells: SK-MEL-28. The procedure: Figure S25 – cJun protein levels in SK-MEL-28 cell lysate (with the addition of Roche cOmplete protease inhibitor cocktail) upon addition of 30 µM FAM-HW33-NLSTAT, determined over time by western blot. Cells were lysed by sonication in 20 mM KP, 150 mM NaCl, 5 mM TCEP, pH 7.4 and incubated at 37°C after peptide addition. Uncropped blots are also shown.
On the technique in general: In western blotting, separated proteins are transferred to a membrane and probed.

Another data set concerns the target CREB1 (Homo sapiens, UniProt P16220). The experiment in a line: Selectivity: incubation with CREB1 monitored by SDS-PAGE. It is filed as biochemical. As to conditions: HW33 40 µM + CREB1 20 µM, 24 h. Here is the method:
The selectivity of this reaction, which is highly proximity‐driven, was first investigated by incubating HW33 (40 µM) with CREB1 (20 µM), a closely related bZIP‐containing TF that contains a Cys residue at the same position within the bZIP domain as cJun. Moreover, CREB1 contains two additional Cys residues located within the LZ domain that are not found within cJun. […] To further investigate HW33 selectivity for cJun, a reaction was next undertaken in SK‐MEL‐28 human melanoma cell lysate using FAM‐HW33, in which the N‐terminal acetyl group of HW33 was replaced with carboxyfluorescein to allow for peptide detection (Figure S17, Supporting Information). Samples containing cJun bZIP (20 µM) and FAM‐HW33 (20 µM) were incubated with or without lysate (10 µg) at 37 °C for 4 h before analysis by SDS‐PAGE (Figure 4E). […]
Covalent conjugation assays: Initial tests were performed by incubation of HW32 and HW33 (40 µM) with cJun bZIP (20 µM) in 50 mM potassium phosphate butter, 150 mM NaCl, pH 7.4 at 37°C, shaking at 450 rpm. […] The samples were analysed by LC-MS on a Luna C18(2) column (5-μm particle size, 100 Å pore size, 150 × 4.6 mm; Phenomenex). The % occupancy was determined by the ratio of conjugated cJun over total cJun as determined by the area under the peaks in the chromatogram measured at a 215 nm wavelength, with their identity confirmed by ESI-MS. […]

The target in a further data set is T1, cJun/FAM-TRE DNA (Homo sapiens, UniProt P05412).
T1 construct: LC-MS analysis of the cJun bZIP domain; made in house
The experiment in a line: Fluorescence polarisation cJun/FAM-TRE DNA antagonism time course. As to conditions: 10 nM FAM-TRE, 625 nM cJun, peptide 10000-20 nM, 5 mM TCEP, pH 7.4; quadruplicate. It is filed as biochemical. A general note: Fluorescence polarisation rises when a labelled molecule tumbles more slowly, as on binding a larger partner.

A further data set deals with T2, cJun/TRE DNA (Homo sapiens, UniProt P05412).
T2 construct: LC-MS analysis of the cJun bZIP domain; made in house
As to the kind of experiment: CD cJun/TRE DNA antagonism assay (TRE DNA signal at 281 nm). Type of data set: biochemical. From the text: CD antagonism experiments were next carried out, as previously described,^[ [13], [18] ^] whereby the structure of a TRE DNA duplex was monitored by following a peak at 281 nm, which shifts upon binding to cJun. The introduction of antagonist to the sample causes the peak to shift back to its unbound signal in a dose‐dependent manner as the cJun is sequestered, leaving unbound DNA in its original structure (Figure S9, Supporting Information). As there is no protein absorbance in this region of the CD spectrum, this measures DNA structure only and produces a simple readout of the proportion of free/cJun‐bound DNA at different antagonist concentrations. By fitting these plots to a Hill equation (OriginPro), IC50 values for HW1, HW29, and HW31 were determined in both reducing and oxidizing conditions (Table S1, Supporting Information; Figure 3C).
Circular dichroism (CD): An Applied Photophysics Chirascan was used for CD measurements, with a 200 µL sample in a 1 mm path length CD cell. Protein/DNA samples were suspended in 20 mM potassium phosphate,150 mM potassium fluoride at pH 7.4 with or without 5 mM TCEP. cJun was added to TRE DNA (5’-[…], Merck) before addition of antagonist peptide and these samples were equilibrated for 30 minutes before measurement.^[13] For full spectra, three scans between 190 and 260 nm (265-320 nm for DNA binding experiments) were collected with a bandwidth of 1 nm and data sampled at a rate of 0.5 s^-1. These scans were averaged and converted to molar residue ellipticities (MRE). Thermal denaturation experiments were performed by measuring the ellipticity at 222 nm over a 1 to 95°C gradient at 1°C increments. Post-melt scans at 20°C confirmed the transitions were reversible as they overlaid within 5% of the pre-melt scan. The resulting thermal denaturation curves were converted to MRE and fitted to a two-state model, derived via modification of the Gibbs–Helmholtz equation to determine the melting temperature (Tm) ^[26].

T2 sequence (P05412 252-315 limits assumed): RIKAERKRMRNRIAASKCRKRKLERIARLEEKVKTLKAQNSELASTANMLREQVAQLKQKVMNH
Sequence of cJun (P05412 whole entry): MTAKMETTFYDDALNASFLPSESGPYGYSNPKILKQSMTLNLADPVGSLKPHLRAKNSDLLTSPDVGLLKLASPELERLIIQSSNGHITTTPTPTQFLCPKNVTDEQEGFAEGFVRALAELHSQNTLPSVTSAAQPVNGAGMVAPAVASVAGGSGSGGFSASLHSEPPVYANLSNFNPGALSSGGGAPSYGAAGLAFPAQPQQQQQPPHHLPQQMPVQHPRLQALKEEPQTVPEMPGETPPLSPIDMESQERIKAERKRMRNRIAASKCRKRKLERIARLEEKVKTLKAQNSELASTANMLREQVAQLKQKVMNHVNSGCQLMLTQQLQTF
T1 sequence (P05412 252-315 limits assumed): as the sequence (P05412 252-315 limits assumed) above
Sequence of CREB1 (P16220 whole entry, species assumed, the tested form may be a part): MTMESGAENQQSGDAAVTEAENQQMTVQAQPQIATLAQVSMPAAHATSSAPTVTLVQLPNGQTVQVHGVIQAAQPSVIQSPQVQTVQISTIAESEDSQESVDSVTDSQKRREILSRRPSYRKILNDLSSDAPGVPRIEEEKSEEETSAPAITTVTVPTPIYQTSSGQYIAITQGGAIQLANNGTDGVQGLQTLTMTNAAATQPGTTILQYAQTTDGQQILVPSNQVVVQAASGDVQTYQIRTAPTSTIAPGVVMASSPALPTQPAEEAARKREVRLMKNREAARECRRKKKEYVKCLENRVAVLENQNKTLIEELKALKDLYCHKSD

For “5FAM-E[Met(S-mXyl)]EELCVEEDVLEEEIEQLEERNYALRKEIKDLQDQPKKKRKVYGRKKRRQRRR-NH2 (thioether 2-6; lactam 31-35) [FAM-HW33-NLSTAT]”, the “Cellular uptake (FAM fluorescence within cells)” value in the data set on SK-MEL-28 cells [1] is listed as “FAM fluorescence was observed within the cells”. Further, in the data set with SK-MEL-28 cells [2], the “Fold larger reduction in cell viability relative to HW1” value was 2.2 x. In addition, the “cJun depletion in cell lysate” value at cJun is listed as “cJun depletion effect was also observed in cell lysate”.
As for `CC[C@H](C)[C@H](NC(=O)[C@H](CCC(=O)O)NC(=O)[C@H](CCCCN)NC(=O)[C@H](CCCNC(=N)N)NC(=O)[C@H](CC(C)C)NC(=O)[C@H](C)NC(=O)[C@H](Cc1ccc(O)cc1)NC(=O)[C@H](CC(N)=O)NC(=O)[C@H](CCCNC(=N)N)NC(=O)[C@H](CCC(=O)O)NC(=O)[C@H](CCC(=O)O)NC(=O)[C@H](CC(C)C)NC(=O)[C@H](CCC(N)=O)NC(=O)[C@H](CCC(=O)O)NC(=O)[C@@H](NC(=O)[C@H](CCC(=O)O)NC(=O)[C@H](CCC(=O)O)NC(=O)[C@H](CCC(=O)O)NC(=O)[C@H](CC(C)C)NC(=O)[C@@H](NC(=O)[C@H](CC(=O)O)NC(=O)[C@H](CCC(=O)O)NC(=O)[C@H](CCC(=O)O)NC(=O)[C@@H](NC(=O)[C@@H]1CSCc2cccc(c2)C[S+](C)CC[C@H](NC(=O)[C@H](CCC(=O)O)NC(C)=O)C(=O)N[C@@H](CCC(=O)O)C(=O)N[C@@H](CCC(=O)O)C(=O)N[C@@H](CC(C)C)C(=O)N1)C(C)C)C(C)C)[C@@H](C)CC)C(=O)N[C@H]1CCCCNC(=O)C[C@@H](C(=O)N[C@@H](CCC(N)=O)C(N)=O)NC(=O)[C@H](CCC(N)=O)NC(=O)[C@H](CC(C)C)NC(=O)[C@H](CC(=O)O)NC1=O` (stereo partly shown) [HW33] (Ac-E[Met(S-mXyl)]EELCVEEDVLEEEIEQLEERNYALRKEIKDLQDQ-NH2; thioether 2-6; lactam 31-35), the “Conjugation with CREB1” value on CREB1 is reported as “no conjugation observed”. Besides, on cJun/FAM-TRE DNA, the “Time dependence of FP antagonism compared with HW1” value is “improved antagonism over HW1 after 240 minutes”. Moreover, the “Fold increase in antagonism over the 4 h time course” value on cJun/TRE DNA (CD antagonism time course) is 5 fold. Also, the “Time dependence of CD antagonism compared with HW1” value on cJun/TRE DNA (IC50 plotted over time) is recorded as “improved antagonism over HW1 after 60 min”.
